Experimental data published in ChEMBL document CHEMBL1201862, “PubChem BioAssay data set” (2004).
Activity calls are given as the source filed them.

Legend:
[1] = human group III sPLA2 inhibitors, dose response, biochemical, QFRET, IC50 (AID 743457);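 also: green fluorescence rise as the enzyme cleaves BODIPY PC-A2 in liposomes; potency for inhibition of the enzyme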
[2] = molecular target: Prothrombin (Homo sapiens, UniProt P00734); experiment: Thrombin 1536 HTS Dose Response Confirmation. [Related pubchem assays: 1046 (Thrombin 1536 HTS; hits were confirmed in this assay)]; assay type: functional
[3] = LGR2 antagonists, dose response, cell-based, HEK293, CRE-luciferase reporter, cherry pick, set 2 (AID 743343); assay type: functional;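 also: transfected cells were stimulated with diluted bursicon conditioned medium after compound addition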
[4] = HepG2 cell cytotoxicity, dose response, cytotoxicity control, plate reader, cherry-pick, antagonist series (AID 743416); assay type: functional, cell-based
[5] = A549 cell cytotoxicity, dose response, cytotoxicity control, plate reader, cherry-pick, antagonist series (AID 743412); assay type: functional, cell-based
[6] = MC4R antagonists, dose response, counter-screen for LGR2 antagonist project, cell-based, plate reader, cherry pick (AID 743444); assay type: functional;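 also: transfected HEK 293 cells stimulated with alpha-MSH peptide; potency of inhibitors of the alpha-MSH evoked signal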
[7] = HEK293 cell cytotoxicity, dose response, cytotoxicity control, plate reader, cherry-picked samples (AID 743446); assay type: functional, cell-based
[8] = molecular target: T1, Protein Tat (Human immunodeficiency virus type 1 group M subtype B (isolate HXB2)(HIV-1), UniProt P04608); assay type: functional;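 also: tat binding to TAR RNA read out by fluorescence polarization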
T1 sequence (P04608 whole entry): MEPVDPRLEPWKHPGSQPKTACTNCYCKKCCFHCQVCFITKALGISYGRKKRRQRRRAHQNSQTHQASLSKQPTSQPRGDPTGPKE

[9] = molecular target: Eukaryotic translation initiation factor 4E (Mus musculus, UniProt P63073); experiment: eIF4E–eIF4G protein interaction inhibitors, dose response, biochemical, TR-FRET (AID 855); assay type: functional;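 also: potency for disrupting eIF4E binding to eIF4GI seen as loss of FRET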
[10] = molecular target: T2, Oxysterols receptor LXR-beta (Homo sapiens, UniProt P55055); experiment: LXR agonists, Gal4 luciferase reporter, dose response, counter-screen for ssDAF-12 agonist project, cell-based, luminescence, HEK293, S. stercoralis campaign (AID 720737); assay type: functional; details: read-out: IC50 (the source's name)
T2 sequence (P55055 whole entry): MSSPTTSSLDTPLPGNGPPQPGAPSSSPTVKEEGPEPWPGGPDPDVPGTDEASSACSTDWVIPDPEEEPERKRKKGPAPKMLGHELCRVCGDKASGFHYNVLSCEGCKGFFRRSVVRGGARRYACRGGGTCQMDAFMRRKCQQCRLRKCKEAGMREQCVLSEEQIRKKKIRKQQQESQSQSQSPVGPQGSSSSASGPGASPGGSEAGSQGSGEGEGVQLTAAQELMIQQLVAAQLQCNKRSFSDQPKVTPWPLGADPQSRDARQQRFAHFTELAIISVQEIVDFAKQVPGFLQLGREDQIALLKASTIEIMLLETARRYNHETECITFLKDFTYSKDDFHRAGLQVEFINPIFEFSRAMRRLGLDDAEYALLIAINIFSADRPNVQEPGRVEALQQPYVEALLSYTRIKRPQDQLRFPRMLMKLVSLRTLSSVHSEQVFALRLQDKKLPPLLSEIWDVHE

[11] = Luminescence-based cell-based high throughput dose response assay to identify activators of the DAF-12 from the parasite S. stercoralis (ssDAF-12).; assay type: functional
[12] = P. falciparum ATP4 D1247Y mutant growth inhibitors, dose response, NITD609-resistant line, SYBR Green, dry powder (AID 1159571); assay type: functional, cell-based;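 also: parasites synchronized at ring stage by sorbitol before testing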
[13] = P. falciparum 3D7-ScDHODH growth inhibitors, dose response, SYBR Green, dry powder samples (AID 1159570); assay type: functional, cell-based;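 also: parasite growth measured after 72 hours of compound exposure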
[14] = P. falciparum Dd2 growth inhibitors, dose response, SYBR Green, dry powder samples (AID 1159566); assay type: functional, cell-based;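 also: potency for growth inhibition with lower SYBR green DNA signal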
[15] = molecular target: T3, Bcl-2-like protein 10 (Homo sapiens, UniProt Q9HD36); experiment: displacers of TR3 peptide from Bcl-B, primary screen, selectivity assay for Bfl-1 inhibitor project, biochemical, fluorescence polarization, FITC-TR3 peptide (AID 748);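 also: fluorescence polarization from a fluorescein-labelled TR3 peptide binding purified Bcl-B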
T3 sequence (Q9HD36 whole entry): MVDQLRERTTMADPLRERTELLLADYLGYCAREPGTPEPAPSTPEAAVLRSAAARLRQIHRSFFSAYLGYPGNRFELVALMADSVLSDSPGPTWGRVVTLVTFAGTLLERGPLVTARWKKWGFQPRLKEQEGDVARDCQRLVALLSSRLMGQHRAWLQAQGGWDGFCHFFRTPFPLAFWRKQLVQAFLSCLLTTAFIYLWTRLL

[16] = molecular target: T4, Histone-lysine N-methyltransferase NSD2 (Homo sapiens, UniProt O96028); assay type: biochemical
T4 sequence (O96028 whole entry): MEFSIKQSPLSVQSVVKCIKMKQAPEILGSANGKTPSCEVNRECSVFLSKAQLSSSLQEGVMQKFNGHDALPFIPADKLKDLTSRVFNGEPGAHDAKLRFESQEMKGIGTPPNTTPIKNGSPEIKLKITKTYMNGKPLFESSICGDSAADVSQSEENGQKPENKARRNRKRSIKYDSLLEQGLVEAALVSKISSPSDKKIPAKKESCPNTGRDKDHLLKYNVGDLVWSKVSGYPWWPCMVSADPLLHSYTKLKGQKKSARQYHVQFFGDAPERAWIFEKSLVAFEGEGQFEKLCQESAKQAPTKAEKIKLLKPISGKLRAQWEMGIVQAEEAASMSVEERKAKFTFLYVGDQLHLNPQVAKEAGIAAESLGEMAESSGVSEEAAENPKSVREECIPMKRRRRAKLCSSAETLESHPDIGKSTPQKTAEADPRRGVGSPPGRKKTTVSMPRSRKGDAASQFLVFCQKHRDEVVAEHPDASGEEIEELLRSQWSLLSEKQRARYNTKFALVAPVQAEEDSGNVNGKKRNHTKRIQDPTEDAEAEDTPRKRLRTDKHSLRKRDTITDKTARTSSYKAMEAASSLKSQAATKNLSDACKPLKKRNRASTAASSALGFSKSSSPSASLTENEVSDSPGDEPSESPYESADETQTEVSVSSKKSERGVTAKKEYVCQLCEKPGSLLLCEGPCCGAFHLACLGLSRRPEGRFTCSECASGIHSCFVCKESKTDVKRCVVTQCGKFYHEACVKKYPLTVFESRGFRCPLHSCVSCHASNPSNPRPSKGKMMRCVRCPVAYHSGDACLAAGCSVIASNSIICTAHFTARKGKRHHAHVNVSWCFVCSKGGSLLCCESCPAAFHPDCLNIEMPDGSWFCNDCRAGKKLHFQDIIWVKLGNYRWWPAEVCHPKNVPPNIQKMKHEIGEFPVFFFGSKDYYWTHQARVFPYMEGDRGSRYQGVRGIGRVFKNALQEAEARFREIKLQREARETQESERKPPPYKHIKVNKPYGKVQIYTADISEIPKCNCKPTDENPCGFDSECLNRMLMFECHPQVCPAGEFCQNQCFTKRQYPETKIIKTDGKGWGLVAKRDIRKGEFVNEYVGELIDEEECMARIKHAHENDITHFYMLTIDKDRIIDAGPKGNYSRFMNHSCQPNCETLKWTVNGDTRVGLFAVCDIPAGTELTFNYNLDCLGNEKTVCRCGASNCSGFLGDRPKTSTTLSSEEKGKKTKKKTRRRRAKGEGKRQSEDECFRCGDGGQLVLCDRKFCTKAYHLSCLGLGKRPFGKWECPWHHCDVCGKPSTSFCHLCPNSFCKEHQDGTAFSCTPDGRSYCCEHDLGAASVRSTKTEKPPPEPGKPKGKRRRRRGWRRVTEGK

Eukaryotic translation initiation factor 4E, sequence (P63073 whole entry, the tested form may be a part): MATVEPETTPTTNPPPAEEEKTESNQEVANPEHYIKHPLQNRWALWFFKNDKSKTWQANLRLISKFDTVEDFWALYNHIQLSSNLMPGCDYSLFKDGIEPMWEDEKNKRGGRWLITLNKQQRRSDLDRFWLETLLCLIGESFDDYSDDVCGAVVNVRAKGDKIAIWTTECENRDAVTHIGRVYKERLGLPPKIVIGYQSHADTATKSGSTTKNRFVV

With `Cc1cccc(NC(S)=NNC(=O)c2ccc3c(c2)OCO3)c1` the IC50 [1] was > 122 µM (inactive).

In the case of `COc1cccc(-c2cc(C(=O)Nc3c(C)nn(Cc4ccccc4)c3C)no2)c1`, the IC50 [2] is reported as > 50 µM (not active).

With `N#C[C@@H]1[C@H](c2ccc(C#Cc3ccc(F)cc3)cc2)[C@@H](CO)N1C(=O)C1CCCC1` the AC50 [3] was 15.8 µM (active), the AC50 [4] was 18.5 µM (active) and the AC50 [5] was 19.1 µM (active). For the same compound, the AC50 [6] was 13.1 µM (active) and the AC50 [7] was 50.9 µM (active).

For `COc1ccc(CCNC(=O)/C=C/c2ccco2)cc1`, the IC50 [8] was > 100 µM (active).

For `Cc1cc(O)c(/C=N/OCc2ccc(Cl)cc2Cl)c(=O)o1`, the IC50 [9] was 50 µM (inactive).

In the case of `COc1cc(-c2nc3ccccc3c(=O)n2N)cc(OC)c1OC`, the EC50 [10] is reported as > 67.5 µM (inactive) and the IC50 [11] is reported as > 67.5 µM (inactive).

For `COc1ccccc1C#Cc1ccc([C@H]2[C@@H](C#N)N(C(=O)C3CC3)[C@H]2CO)cc1`, the AC50 [12] was 1.69 µM (active), the AC50 [13] was 1.35 µM (active) and the AC50 [14] was 0.692 µM (active).

For `Cc1cc[n+]2c3c(cccc13)CCC2`, the IC50 [15] was 63.2 µM (inactive).

In the case of `C/C(=N\NC(=S)Nc1ccc(C)cc1)c1cc2ccccc2o1.CN(C)C=O`, the IC50 [1] is reported as 31.8 µM (inactive).

With `CCN1/C(=C/C(C)=C/c2sc3ccccc3[n+]2CC)Sc2ccccc21` the AC50 [16] was 7.11 µM (active).

For `O=c1cc(CCl)nc2sc3ccccc3n12`, the IC50 [9] was 50 µM (inactive).
